Measurements reported in patent US20230066474A1, “LYSOSOME-TARGETING ANTIBODY-DRUG CONJUGATE AND USE THEREOF” (Sun Yat-Sen University, priority 2019, published 2023).
Where a SMILES comes first, the peptide text is derived from it. [ ]: non-standard residue; d: D form. Dolaproine = CO[C@@H]([C@@H]1CCCN1)[C@@H](C)C(=O)O; Dil = CC[C@H](C)[C@H](NC)[C@@H](CC(=O)O)OC; NMeV = CN[C@H](C(=O)O)C(C)C

System: A431 cells
Assay: 2D tumor cell model cytotoxicity, Cell Counting Kit-8 (CCK-8)
Format: cell-based, human
Conditions: treated 96 h, CCK-8 viability, mean±SEM (n=3)
Protocol: 2D tumor cell model was used, where ADCs of varying concentrations were added to a 96-well plate seeded with A431 cells and treated for 96 h. The cell viability was examined using Cell Counting Kit-8 (CCK-8).

For `CC[C@H](C)[C@@H]([C@@H](CC(=O)N1CCC[C@H]1[C@H](OC)[C@@H](C)C(=O)N[C@@H](Cc1ccccc1)C(=O)O)OC)N(C)C(=O)[C@@H](NC(=O)[C@@H](NC)C(C)C)C(C)C` [MMAF, monomethylaurethatin F] (H-[NMeV]V[Dil][Dolaproine]F-OH), which EC50 is on record?
Its EC50 is 955 ± 289 nM.
